Data set [1] deals with SARS-CoV-2. The note with it: cited from earlier work.
The subject of data set [2] is influenza A virus subtype H1N1. The note with it: cited from earlier work.
Data set [3] deals with SARS-CoV-2. The format is cell-based. Conditions: Calu-3 cells; for Suppression of viral infection relative to DMSO control, initial screen: 0.5 μM for 1, 1 μM for the others, 48 h, Figure 3; for Suppression of viral infection, follow-up experiment: Figure 4.
For a further data set, the system named is HIV-1 strain 96USHIPS7. Conditions: read-out: IC50 against HIV-1 strain 96USHIPS7; cited from earlier work.
A further data set deals with HIV-1 strain UG/92/029. The note with it: read-out: IC50 against HIV-1 strain UG/92/029; cited from earlier work.
For the next data set, the system named is Plasmodium falciparum. Conditions: human malarial parasite Plasmodium falciparum; cited from earlier work.
For data set [4] the following is noted: cited from earlier work.
Data set [5] relates to SARS-CoV-2. Conditions: air-liquid interface culture, test concentration 10 μM, 48 h.
The test system of data set [6] is primary human airway cells. The note with it: air-liquid interface, 48 h, Figure 5B.

Where two headings read alike, the source gives them in different places.

For plitidepsin [Compound 4], the “Potency against SARS-CoV-2 relative to remdesivir” value in the data set on SARS-CoV-2 [1] is on record as “more than 20 times”.

In the case of `C[C@H]1CC[C@H]2C(C)(C)[C@@H](O)CC[C@]23Oc2c(c(O)cc4c2CNC4=O)C[C@]13C` [Compound 16, stachyflin], the “Activity against influenza A virus subtype H1N1” value in [2] is on record as “nanomolar activity”.

As for `CC1=C2Cc3cc(ccc3O)C(=O)O[C@H](C(C)(C)Br)CC[C@](C)(O)[C@H](Br)CC[C@]2(C)[C@@H](Br)CC1` [Compound 3, bromophycolide A], in the data set on SARS-CoV-2 [3], the “Suppression of viral infection relative to DMSO control, initial screen” value was “significantly suppressed viral infection”. Further, the “Suppression of viral infection, follow-up experiment” value (“Suppression … follow-up experiment” for short) in the data set with SARS-CoV-2 [3] (10 μM) was “significant suppression of viral infection”. For the same molecule, the IC50 in the data set on HIV-1 strain 96USHIPS7 was 9.8 µM. Also, the IC50 with HIV-1 strain UG/92/029 is 9.1 µM. For the same molecule, the “Blood stage antimalarial activity” value in the data set on Plasmodium falciparum is listed as “sub-micromolar”. In data set [4] (malaria mouse model), the Toxicity in vivo entry is recorded as “low toxicity”. In data set [4] (mouse, in vivo), the Bioavailability in vivo entry was “reasonable bioavailability”, the In vivo half-life entry is given as “short in vivo half-life” and the Liver metabolism result is “rapid liver metabolism”. For the same molecule, in the data set on SARS-CoV-2 [5], the “Effect on SARS-CoV-2 replication in primary human airway cells” value was “ineffective”.

As to `CC(=O)C[C@]1(O)c2ccccc2-[n+]2ccc3c([nH]c4ccccc43)c21.O=C([O-])C(F)(F)F` [Compound 1, homofascaplysin A], the “Suppression of viral infection relative to DMSO control, initial screen” value with SARS-CoV-2 [3] was “significantly suppressed viral infection”. For the same molecule, the “Suppression … follow-up experiment” value in the data set with SARS-CoV-2 [3] (2.8 μM) was “significant suppression of viral infection”. The “Effect on adenoviral transduction (toxicity control)” value in data set [6] is “did not affect adenoviral transduction”.

As for `CC(C)=CCC[C@@H](C)[C@H]1CC[C@@]2(C(=O)O)C3=C(CC[C@]12C)[C@@]1(C)CC[C@H](O[C@@H]2OC[C@H](O)[C@H](O[C@@H]4OC[C@H](O)[C@H](O[C@@H]5O[C@H](CO)[C@H](O)[C@H](O)[C@H]5O)[C@H]4O)[C@H]2O[C@@H]2O[C@H](CO)[C@H](O)[C@H](O)[C@H]2O)C(C)(C)C1CC3` (stereo partly shown) [Compound 13, formoside], in the data set on SARS-CoV-2 [3] (data not shown), the “Reduction of SARS-CoV-2 infection in a subsequent experiment” value is on record as “not replicated”.

Take `C[C@H]1CC[C@H]2C(C)(C)CCC[C@]23Oc2ccc(O)cc2C[C@]13C` [Compound 2, (+)-aureol]: the “Suppression of viral infection relative to DMSO control, initial screen” value in the data set on SARS-CoV-2 [3] is “significantly suppressed viral infection”. In addition, the “Suppression … follow-up experiment” value in the data set with SARS-CoV-2 [3] (10 μM) was “significant suppression of viral infection”. Also, the “Effect on SARS-CoV-2 replication in primary human airway cells” value with SARS-CoV-2 [5] was “ineffective”.

The values are drawn from article PMC8936055 (Journal of natural products, 2022).
